Measured values from patent publication US20250073255A1, “USE OF FA-TYPE LIPID COMPOUNDS IN PREPARATION OF NUCLEIC ACID DELIVERY REAGENT AND RELATED PRODUCT” (BEIJING BAISHIKANG PHARMACEUTICAL TECHNOLOGY (BSJPHARMA) …, priority 2021, published 2025).

System: C57BL/6 male mice
Experiment: In vivo delivery study of lipid nucleic acid mixture (oral gavage, RT-qPCR of PGY-sRNA-26 in tissues)
Parameters: species or system mouse
Conditions: 100 μg lipid:10 nmol PGY-sRNA-26, sampled after 12 hours; for oral delivery of single-stranded sRNA nucleic acids into mouse heart tissue: vs free uptake group; for oral delivery of single-stranded sRNA nucleic acids into mouse intestinal tissue: intestine; for oral delivery of single-stranded sRNA nucleic acids into mouse pancreatic tissue: pancreas
Description: 10 nmol of small RNA (as shown in Table 2) was dissolved in 400 μl of DEPC-treated water in a glass tube, 10 μl of the corresponding lipid stock solution was added such that the lipid mass in the system was 100 μg. The mixture was mixed thoroughly, heated in a 90° C. water bath for 15 minutes, and then cooled naturally to obtain the lipid nucleic acid mixture of lipid and small RNA.
C57BL/6 male mice, approximately 6 weeks old, weighing […], were obtained from Beijing Vital River Laboratory Animal Technology Co., Ltd. The mice were housed in the SPF-grade animal facility at the Animal Center of the Institute of Basic Medical Sciences, Chinese Academy of Medical Sciences. The mice were fasted for 12 hours before gavage administration.
The lipid nucleic acid mixture was prepared following the method described in Example 2. The resultant lipid nucleic acid mixture was orally administered to each mouse at a dose of 100 μg lipid:10 nmol single-stranded 3-methylated small RNA PGY-sRNA-26.
• 1) Blank group (n=4): mice were administered with 500 μl saline by gavage, this group served as a blank control; • 2) Free uptake group (n=4): mice were directly administered with small RNA PGY-sRNA-26 solution (10 nmol/mouse, 500 l) by gavage, this group served as a negative control; • 3) Lipid-treated group (n=4): mice were administered with 500 μl lipid nucleic acid mixture prepared in step 2 by gavage.
After 12 hours of gavage administration, 500 μl blood from the eyeball of each mouse was sampled, added to 1.5 ml Trizol Reagent LS (purchased from Invitrogen), thoroughly mixed for lysis. 3 ml of Trizol Reagent LSwas added to tissue samples and homogenized for complete lysis, wherein the sampled tissues include heart, liver, spleen, lung, kidney, stomach, intestine, brain, blood, femur, pancreas. RNAwas extracted from 1 ml of the blood or the tissue lysate following the steps below: • Centrifuge at 4° C., 12,000 rpm for 5 min, discard the precipitate, transfer Trizol to a new centrifuge tube; • Add chloroform at 200 μL chloroform/mL Trizol, shake well, stand at room temperature for 5 min; • Centrifuge at 4° C., 12,000 rpm for 15 min; • Take the upper aqueous phase to another centrifuge tube, add isopropanol at 0.4 mL isopropanol/mL Trizol, mix well, and stand at low temperature for 10-20 min; • Centrifuge at 4° C., 12,000 rpm for 15 min, discard the supernatant, RNA precipitated at the bottom of the tube; • Add 1 mL of 75% ethanol, gently shake the centrifuge tube, suspend the precipitate; • Centrifuge at 4° C., 12,000 rpm for 15 min, discard the supernatant, add 1 mL of 75% ethanol, gently shake the centrifuge tube, suspend the precipitate; • Centrifuge at 4° C., 12,000 rpm for 15 min, discard the supernatant, air-dry at room temperature, dissolve RNA samples in 50 μL RNase-free H2O, measure OD value to quantify RNA concentration. 3.3 Reverse Transcription of sRNA to cDNA:
sRNA was reverse transcribed to cDNA using the High-Capacity cDNA Reverse Transcription Kit (Applied Biosystems, cat. no. 4368813) by stem-loop method (see, e.g., “Real-time quantification of microRNAs by stem-loop RT-PCR, Nucleic Acids Res. 2005 Nov. 27; 33(20):e179”, incorporated herein by reference). The reverse transcription system is as follows: Template RNA (200 ng/μL) 10 μL, 10×RT Buffer 2.0 μL, 25×dNTP Mix (100 mM) 0.8 μL, U6 RT stem-loop primer (10 μM) 2.0 μL, PGY-sRNA-26 RT stem-loop primer (10 μM) 2.0 μL, MultiScribe™ Reverse Transcriptase (50 U/μL) 1.0 μL, RNAse Inhibitor (40 U/μL) 1.0 μL, nuclease-free H2O 1.2 μL. After transient centrifugation, the reverse transcription system was placed in a PCR machine with the following reaction conditions: (1) 25° C., 10 min; (2) 37° C., 120 min; (3) 85° C., 5 min; (4) 4° C., stop reaction. After the reaction, add 20 μL RNAse-free ddH2O, adjust the final volume to 40 μL. […]

CCCCCCCCCCCCCCCCCC(=O)N[C@@H](Cc1ccccc1)C(=O)O [Lipid 830, (2S)-2-(octadecanoylamino)-3-phenylpropanoic acid]
can effectively orally deliver: oral delivery of single-stranded sRNA nucleic acids into mouse blood | oral delivery of single-stranded sRNA nucleic acids into mouse brain tissue | oral delivery of single-stranded sRNA nucleic acids into mouse femur | oral delivery of single-stranded sRNA nucleic acids into mouse heart tissue | oral delivery of single-stranded sRNA nucleic acids into mouse intestinal tissue | oral delivery of single-stranded sRNA nucleic acids into mouse kidney tissue | oral delivery of single-stranded sRNA nucleic acids into mouse liver tissue | oral delivery of single-stranded sRNA nucleic acids into mouse lung tissue | oral delivery of single-stranded sRNA nucleic acids into mouse pancreatic tissue | oral delivery of single-stranded sRNA nucleic acids into mouse spleen tissue | oral delivery of single-stranded sRNA nucleic acids into mouse stomach tissue

CC=CC(C)=O [Lipid 621]
can effectively orally deliver: oral delivery of single-stranded sRNA nucleic acids into mouse blood | oral delivery of single-stranded sRNA nucleic acids into mouse brain tissue | oral delivery of single-stranded sRNA nucleic acids into mouse femur | oral delivery of single-stranded sRNA nucleic acids into mouse heart tissue | oral delivery of single-stranded sRNA nucleic acids into mouse intestinal tissue | oral delivery of single-stranded sRNA nucleic acids into mouse liver tissue | oral delivery of single-stranded sRNA nucleic acids into mouse lung tissue | oral delivery of single-stranded sRNA nucleic acids into mouse stomach tissue

NCCCCCC(=O)NCCCCCC(=O)O [Lipid 522, 6-(6-aminohexanoylamino)hexanoic acid]
can effectively orally deliver: oral delivery of single-stranded sRNA nucleic acids into mouse blood | oral delivery of single-stranded sRNA nucleic acids into mouse heart tissue | oral delivery of single-stranded sRNA nucleic acids into mouse intestinal tissue | oral delivery of single-stranded sRNA nucleic acids into mouse lung tissue | oral delivery of single-stranded sRNA nucleic acids into mouse spleen tissue | oral delivery of single-stranded sRNA nucleic acids into mouse stomach tissue

CCCCCC/C=C\CCCCCCCC(=O)OCCCCCCCCCCCCC [Lipid 813, tridecyl (Z)-hexadec-9-enoate]
can effectively orally deliver: oral delivery of single-stranded sRNA nucleic acids into mouse blood | oral delivery of single-stranded sRNA nucleic acids into mouse brain tissue | oral delivery of single-stranded sRNA nucleic acids into mouse femur | oral delivery of single-stranded sRNA nucleic acids into mouse heart tissue | oral delivery of single-stranded sRNA nucleic acids into mouse intestinal tissue | oral delivery of single-stranded sRNA nucleic acids into mouse kidney tissue | oral delivery of single-stranded sRNA nucleic acids into mouse liver tissue | oral delivery of single-stranded sRNA nucleic acids into mouse lung tissue | oral delivery of single-stranded sRNA nucleic acids into mouse pancreatic tissue | oral delivery of single-stranded sRNA nucleic acids into mouse spleen tissue | oral delivery of single-stranded sRNA nucleic acids into mouse stomach tissue

CC/C=C\C/C=C\C/C=C\CCCCCCCC(=O)OCCCCCCCCCCCCCC [Lipid 824, tetradecyl (9Z,12Z,15Z)-octadeca-9,12,15-trienoate]
can effectively orally deliver: oral delivery of single-stranded sRNA nucleic acids into mouse blood | oral delivery of single-stranded sRNA nucleic acids into mouse brain tissue | oral delivery of single-stranded sRNA nucleic acids into mouse femur | oral delivery of single-stranded sRNA nucleic acids into mouse heart tissue | oral delivery of single-stranded sRNA nucleic acids into mouse intestinal tissue | oral delivery of single-stranded sRNA nucleic acids into mouse kidney tissue | oral delivery of single-stranded sRNA nucleic acids into mouse liver tissue | oral delivery of single-stranded sRNA nucleic acids into mouse lung tissue | oral delivery of single-stranded sRNA nucleic acids into mouse pancreatic tissue | oral delivery of single-stranded sRNA nucleic acids into mouse spleen tissue | oral delivery of single-stranded sRNA nucleic acids into mouse stomach tissue

C=C(C)CCOC(=O)CCCCCCCCCCCCCCCCCCCCC [Lipid 815, 3-methylbut-3-enyl docosanoate]
can effectively orally deliver: oral delivery of single-stranded sRNA nucleic acids into mouse blood | oral delivery of single-stranded sRNA nucleic acids into mouse brain tissue | oral delivery of single-stranded sRNA nucleic acids into mouse femur | oral delivery of single-stranded sRNA nucleic acids into mouse heart tissue | oral delivery of single-stranded sRNA nucleic acids into mouse intestinal tissue | oral delivery of single-stranded sRNA nucleic acids into mouse kidney tissue | oral delivery of single-stranded sRNA nucleic acids into mouse liver tissue | oral delivery of single-stranded sRNA nucleic acids into mouse lung tissue | oral delivery of single-stranded sRNA nucleic acids into mouse pancreatic tissue | oral delivery of single-stranded sRNA nucleic acids into mouse spleen tissue | oral delivery of single-stranded sRNA nucleic acids into mouse stomach tissue

CC(=O)CCC=C(C)CCC=C(C)C [Lipid 502, 6,10-dimethylundeca-5,9-dien-2-one]
can effectively orally deliver: oral delivery of single-stranded sRNA nucleic acids into mouse blood | oral delivery of single-stranded sRNA nucleic acids into mouse brain tissue | oral delivery of single-stranded sRNA nucleic acids into mouse heart tissue | oral delivery of single-stranded sRNA nucleic acids into mouse intestinal tissue | oral delivery of single-stranded sRNA nucleic acids into mouse kidney tissue | oral delivery of single-stranded sRNA nucleic acids into mouse spleen tissue | oral delivery of single-stranded sRNA nucleic acids into mouse stomach tissue

CCCCCCCCCCCCCCC(=O)O [Lipid 605, pentadecanoic acid]
can effectively orally deliver: oral delivery of single-stranded sRNA nucleic acids into mouse blood | oral delivery of single-stranded sRNA nucleic acids into mouse femur | oral delivery of single-stranded sRNA nucleic acids into mouse stomach tissue
